In patent publication US10154988B2, “Methods and compositions for treating schizophrenia” (The Johns Hopkins University, priority 2012, dated 2018):
Entries after “also recorded” stand apart in the source; their conditions may differ. Where two headings read alike, the source gives them in different places.

What was measured:
[1] = tested on: DG/CA3 region of aMCI subjects; test: fMRI activity in DG/CA3 during lure stimuli correctly identified as similar; assay type: in vivo, human
Experimental: A within-subjects trial of 8 weeks duration, involving 17 amnestic MCI (aMCI) subjects and 17 age-matched controls with a low dose treatment of levetiracetam is conducted. […] Cognitive testing and fMRI imaging data are obtained from the subjects after each two week period of drug/placebo treatment. […] The […]

[2] = tested on: entorhinal cortex (EC) of aMCI subjects; test: fMRI activity in entorhinal cortex during lure stimuli correctly identified as similar; assay type: in vivo, human; conditions: 125 mg twice a day for two weeks vs placebo
Experimental: A within-subjects trial of 8 weeks duration, involving 17 amnestic MCI (aMCI) subjects and 17 age-matched controls with a low dose treatment of levetiracetam is conducted. During the course of the study, each aMCI subject receives both drug and placebo treatments separately in two periods of two weeks each, with the order of treatments among different aMCI subjects being counterbalanced (see FIG. 7). Age-matched control subjects that are treated with placebo serve as a further control. Cognitive testing and fMRI imaging data are obtained from the subjects after each two week period of drug/placebo treatment. As described above, the drug treatment period is the two weeks preceding Visit 1 or 2 (with the two week period preceding the other Visit being the placebo phase). […] Imaging data are obtained through high-resolution methods developed in the Stark laboratory. Data are collected on a Phillips 3 Tesla scanner (Eindhoven, The Netherlands) equipped with an 8-channel SENSE (Sensitivity Encoding) head coil, located at the F.M. Kirby Research Center for Functional Brain Imaging at the Kennedy Krieger Institute (Baltimore, Md.). […] Group data are analyzed using a two-way Analysis of Variance (ANOVA) with trial types and group as fixed factors, and subject as a random factor nested within group. […]

aMCI subjects = test: explicit 3-alternative forced choice task (lure-based memory performance); assay type: in vivo, human
[3] = levetiracetam blood plasma levels in aMCI patients; assay type: in vivo; conditions: human
Text: Visit 1: At the end of the first drug/placebo period 2 weeks after the Baseline Visit, the medical, neurological and psychiatric evaluations and cognitive testing are repeated. The subject is also clinically evaluated for suicidal ideation. Blood is drawn again to repeat the standard tests and to determine whether there are any changes related to drug treatment; the subject's blood levetiracetam level is also obtained. All medication that is dispensed at the Baseline Visit (drug or placebo) is collected and subject compliance with the medication regimen is assessed. The first fMRI session (with cognitive tests) is conducted on the same day, either immediately before or immediately after the clinical assessment. Subjects discontinue first period treatment at this visit.
Visit 2: At approximately 2 weeks after the Washout Visit (i.e., 2 weeks after starting the second treatment period), the medical, neurological and psychiatric evaluations and the cognitive testing are repeated. The subject is clinically evaluated for suicidal ideation. Blood is drawn again to repeat the standard tests and to determine whether there are any changes related to drug treatment; the subject's blood levetiracetam level is also obtained. All medication that is dispensed at the Washout Visit is collected and subject compliance with the medication regimen is assessed. The second fMRI session (with cognitive tests) is repeated on the same day, either immediately before or immediately after the clinical assessment.
Visit 2: At approximately 2 weeks after the Washout Visit (i.e., 2 weeks after starting the second treatment period), the medical, neurological and psychiatric evaluations and the cognitive testing are repeated. The subject is clinically evaluated for suicidal ideation. […] All medication being dispensed at the Washout Visit is collected and subject compliance with the medication regimen is assessed. […]
Human – in the human studies described in Examples 3 and 4, a subject's levetiracetam blood plasma level is assessed at each visit. […]

SMILES: CC[C@@H](C(N)=O)N1CCCC1=O [levetiracetam, (2S)-2-(2-oxopyrrolidin-1-yl) butanamide]
- DG/CA3 hyperactivity (fMRI mean activity) ([1]; 125 mg twice a day for two weeks vs placebo, p=0.037): reduces DG/CA3 hyper-activity
- DG/CA3 hyperactivity (fMRI mean activity) ([1]; 250 mg BID for two weeks vs placebo, N=17): does not significantly reduce; also recorded: No such improvement is observed
- EC activity during memory judgments (fMRI) [2]: normalizes activity
- performance in the explicit 3-alternative forced choice task (aMCI subjects; 62.5 mg BID for two weeks vs placebo, p=0.041): further improved performance in cognitive tests; also recorded: improves significantly
- performance in the explicit 3-alternative forced choice task (aMCI subjects; 125 mg twice a day for two weeks vs placebo, p=0.039): improves significantly
- performance in the explicit 3-alternative forced choice task (aMCI subjects; 250 mg BID for two weeks vs placebo, p=0.2396): does not significantly improve
- concentration at 2 weeks ([3]; 62.5 mg BID cohort (125 mg/day), SEM±0.288, read-out: mean levetiracetam blood plasma level): 2880 ng/mL
- concentration at 2 weeks ([3]; 125 mg BID cohort (250 mg/day), SEM±0.53, read-out: mean levetiracetam blood plasma level): 4400 ng/mL
- concentration at 2 weeks ([3]; 250 mg BID cohort (500 mg/day), SEM±0.92, read-out: mean levetiracetam blood plasma level): 7900 ng/mL
